Reference: ChEMBL document CHEMBL1143228, “Inhibition of lipopolysaccharide-induced inducible nitric oxide synthase and cyclooxygenase-2 expression by xanthanolides isolated from Xanthium strumarium” (Bioorg Med Chem Lett, 2008)
The source made the active and inactive calls. The rule behind the calls is not given here.

Key:
[1] = system: BV-2; experiment: Inhibition of NO production in LPS-activated mouse BV2 cells by […]; format: functional, cell-based
[2] = system: BV-2; experiment: Inhibition of iNOS mRNA expression in LPS-stimulated mouse BV2 cells at 20 uM after 4 hrs by RT-PCR; format: functional, cell-based
[3] = system: BV-2; experiment: Inhibition of IkappaB alpha degradation in LPS-induced mouse BV2 cells at 20 uM after 30 mins by Western blot analysis; format: functional, cell-based
[4] = system: BV-2; experiment: Inhibition of COX2 mRNA expression in LPS-stimulated mouse BV2 cells at 20 uM after 4 hrs by RT-PCR; format: functional, cell-based
[5] = system: BV-2; experiment: Inhibition of iNOS expression in LPS-stimulated mouse BV2 cells at 20 uM after 20 hrs by Western blot analysis; format: functional, cell-based
[6] = system: BV-2; experiment: Inhibition of COX2 expression in LPS-stimulated mouse BV2 cells after 20 hrs by Western blot analysis; format: functional, cell-based
[7] = system: BV-2; experiment: Inhibition of NF-kappaB activity in LPS-stimulated mouse BV2 cells at 10 uM after 1 hr by luciferase reporter gene assay; format: cell-based

Compound | IC50 [1] [µM] | Activity [2] | Activity [3] | Activity [4] | Activity [5] | Activity [6] | Activity [7]
C=C(C(=O)O)[C@H]1CC=C(/C=C/C(C)=O)[C@@H](C)CC1 | 136 |  |  |  |  |  | 
C=C1C(=O)O[C@H]2C[C@H](C)C(CCC(C)=O)=CC[C@H]12 | 11.2 | Active | Active | Active | Active | Active | 
C=C1C(=O)O[C@H]2C[C@H](C)C(/C=C/C(C)=O)=CC[C@H]12 | 0.47 | Active | Active | Active | Active | Active | Active
